According to the NIST ThermoML archive (doi:10.1021/acs.jced.5b00662):

Assay: xn = mol fraction of the nth substance listed
Details: 100 kPa, Liquid; for speed of sound: Sing-around technique in a fixed-path interferometer; for mass density: Vibrating tube method

OCCOCCO [diethylene glycol] + O
Details | mass density, x1 = 0.907 [kg/m3] | mass density, x1 = 0.9589 [kg/m3] | mass density, x1 = 0.9698 [kg/m3] | mass density, x1 = 0.99 [kg/m3] | mass density, x1 = 0.9901 [kg/m3] | speed of sound, x1 = 0.907 [m/s] | speed of sound, x1 = 0.9589 [m/s] | speed of sound, x1 = 0.9698 [m/s] | speed of sound, x1 = 0.99 [m/s] | speed of sound, x1 = 0.9901 [m/s]
283.15 K | 1123.13 | 1123.27 | 1123.27 | 1123.33 | 1123.33 | 1620.3 | 1617.8 | 1617.4 | 1616.4 | 1616.5
288.15 K | 1119.58 | 1119.71 | 1119.72 | 1119.77 | 1119.77 | 1608 | 1605.5 | 1605.2 | 1604.1 | 1604.2
293.15 K | 1116.02 | 1116.15 | 1116.16 | 1116.21 | 1116.21 | 1595.9 | 1593.3 | 1593 | 1591.9 | 1592
298.15 K | 1112.45 | 1112.59 | 1112.59 | 1112.65 | 1112.65 | 1583.8 | 1581 | 1580.8 | 1579.6 | 1579.8
303.15 K | 1108.88 | 1109.02 | 1109.03 | 1109.08 | 1109.08 | 1571.7 | 1569 | 1568.6 | 1567.5 | 1567.4
308.15 K | 1105.3 | 1105.43 | 1105.44 | 1105.5 | 1105.5 | 1559.6 | 1557 | 1556.6 | 1555.4 | 1555.4
313.15 K | 1101.69 | 1101.83 | 1101.84 | 1101.9 | 1101.9 | 1547.5 | 1545 | 1544.6 | 1543.4 | 1543.3
323.15 K | 1094.45 | 1094.6 | 1094.6 | 1094.67 | 1094.67 | 1523.4 | 1520.9 | 1520.5 | 1519.3 | 1519.2
333.15 K | 1087.12 | 1087.28 | 1087.29 | 1087.36 | 1087.36 | 1499 | 1496.6 | 1496.2 | 1495.1 | 1494.9
343.15 K | 1079.71 | 1079.88 | 1079.9 | 1079.97 | 1079.97 | 1474.6 | 1472.2 | 1471.8 | 1470.8 | 1470.5
